Experimental data reported in patent US10844077B2, “Thiazolyl-containing compounds for treating proliferative diseases” (Dana-Farber Cancer Institute, Inc., priority 2014, dated 2020).

What was measured:
Assay in all cases: KINATIV assay of compounds I-3 and I-9, lysate directly labeled with ATP-biotin probe (no GF)
Assay type in all cases: cell-based
kinases in BCWM.1 cells [1] = target: kinases in BCWM.1 cells (Homo sapiens, UniProt O00329); settings: PIK3CD; ATP; 1 μM, 90 min; no GF
Description: (§1) The cells were harvested and lysed. […] Bound kinases were identified and quantitated by ACTIVX as described in Patricelli et al., Biochemistry, 2007, 46(2): 350-358. The compounds were tested in duplicates against duplicate or quadruplicate control samples.

kinases in BCWM.1 cells [2] = target: kinases in BCWM.1 cells (Homo sapiens, UniProt O00750); settings: PIK3C2B; ATP; 1 μM, 90 min; no GF
Description: as §1

kinases in BCWM.1 cells [3] = target: kinases in BCWM.1 cells (Homo sapiens, UniProt O43318); settings: TAK1; Lys2; 1 μM, 90 min; no GF
Description: as §1

kinases in BCWM.1 cells [4] = target: kinases in BCWM.1 cells (Homo sapiens, UniProt O94921)
Description: as §1

kinases in BCWM.1 cells [5] = target: kinases in BCWM.1 cells (Homo sapiens, UniProt O95747); settings: OSR1; Lys2; 1 μM, 90 min; no GF
kinases in BCWM.1 cells (Homo sapiens, UniProt O95747), sequence (O95747 2-527 limits assumed): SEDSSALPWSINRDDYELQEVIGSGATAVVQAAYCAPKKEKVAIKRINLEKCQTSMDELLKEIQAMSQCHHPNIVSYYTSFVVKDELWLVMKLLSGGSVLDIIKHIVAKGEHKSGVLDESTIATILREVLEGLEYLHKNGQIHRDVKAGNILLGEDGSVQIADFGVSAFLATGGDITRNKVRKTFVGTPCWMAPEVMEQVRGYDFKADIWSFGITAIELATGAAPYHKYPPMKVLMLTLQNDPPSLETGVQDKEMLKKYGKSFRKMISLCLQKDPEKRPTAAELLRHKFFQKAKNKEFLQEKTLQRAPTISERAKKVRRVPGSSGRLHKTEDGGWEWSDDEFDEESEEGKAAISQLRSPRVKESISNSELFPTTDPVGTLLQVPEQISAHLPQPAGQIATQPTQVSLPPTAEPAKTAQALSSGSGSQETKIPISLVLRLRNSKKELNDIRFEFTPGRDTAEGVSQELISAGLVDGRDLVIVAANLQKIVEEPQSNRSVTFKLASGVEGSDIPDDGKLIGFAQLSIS
Description: as §1

kinases in BCWM.1 cells [6] = target: kinases in BCWM.1 cells (Homo sapiens, UniProt O95819); settings: ZC1/HGK; Lys1; 1 μM, 90 min; no GF
kinases in BCWM.1 cells (Homo sapiens, UniProt O95819), sequence (O95819 2-1239 limits assumed): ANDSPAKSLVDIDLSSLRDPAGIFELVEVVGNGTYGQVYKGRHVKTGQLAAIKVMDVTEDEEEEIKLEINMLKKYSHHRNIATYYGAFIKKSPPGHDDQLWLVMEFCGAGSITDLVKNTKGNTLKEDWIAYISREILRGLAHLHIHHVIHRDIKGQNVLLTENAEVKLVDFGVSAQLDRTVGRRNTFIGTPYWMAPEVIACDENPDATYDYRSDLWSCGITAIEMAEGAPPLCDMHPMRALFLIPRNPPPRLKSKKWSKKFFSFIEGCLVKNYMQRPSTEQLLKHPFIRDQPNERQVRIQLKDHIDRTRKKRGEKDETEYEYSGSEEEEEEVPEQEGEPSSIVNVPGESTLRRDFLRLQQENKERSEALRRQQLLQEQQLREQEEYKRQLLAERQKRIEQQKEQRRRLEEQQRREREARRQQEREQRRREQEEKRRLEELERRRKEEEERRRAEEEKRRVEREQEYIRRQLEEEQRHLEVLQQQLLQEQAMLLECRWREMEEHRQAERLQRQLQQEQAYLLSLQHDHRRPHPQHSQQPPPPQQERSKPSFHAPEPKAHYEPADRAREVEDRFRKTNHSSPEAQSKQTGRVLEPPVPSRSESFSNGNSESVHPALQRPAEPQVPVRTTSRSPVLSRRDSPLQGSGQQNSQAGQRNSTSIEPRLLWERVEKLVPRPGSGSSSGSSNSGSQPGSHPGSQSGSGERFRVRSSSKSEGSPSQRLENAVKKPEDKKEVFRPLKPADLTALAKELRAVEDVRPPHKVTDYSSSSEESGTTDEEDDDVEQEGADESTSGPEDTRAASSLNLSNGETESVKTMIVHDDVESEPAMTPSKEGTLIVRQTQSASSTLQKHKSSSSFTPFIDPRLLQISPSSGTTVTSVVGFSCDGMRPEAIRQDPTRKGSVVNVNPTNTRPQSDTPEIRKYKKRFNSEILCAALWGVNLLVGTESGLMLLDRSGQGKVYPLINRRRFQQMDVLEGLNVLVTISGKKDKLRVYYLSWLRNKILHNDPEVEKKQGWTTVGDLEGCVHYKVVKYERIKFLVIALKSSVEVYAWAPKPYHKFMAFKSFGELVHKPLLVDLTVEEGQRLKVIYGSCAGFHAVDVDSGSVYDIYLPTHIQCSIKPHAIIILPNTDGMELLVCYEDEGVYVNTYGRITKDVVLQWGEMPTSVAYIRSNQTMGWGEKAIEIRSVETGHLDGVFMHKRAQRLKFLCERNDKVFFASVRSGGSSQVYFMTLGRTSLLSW
Description: as §1

kinases in BCWM.1 cells [7] = target: kinases in BCWM.1 cells (Homo sapiens, UniProt P12931); settings: SRC; Lys1; 1 μM, 90 min; no GF
kinases in BCWM.1 cells (Homo sapiens, UniProt P12931), sequence (P12931 2-536 limits assumed): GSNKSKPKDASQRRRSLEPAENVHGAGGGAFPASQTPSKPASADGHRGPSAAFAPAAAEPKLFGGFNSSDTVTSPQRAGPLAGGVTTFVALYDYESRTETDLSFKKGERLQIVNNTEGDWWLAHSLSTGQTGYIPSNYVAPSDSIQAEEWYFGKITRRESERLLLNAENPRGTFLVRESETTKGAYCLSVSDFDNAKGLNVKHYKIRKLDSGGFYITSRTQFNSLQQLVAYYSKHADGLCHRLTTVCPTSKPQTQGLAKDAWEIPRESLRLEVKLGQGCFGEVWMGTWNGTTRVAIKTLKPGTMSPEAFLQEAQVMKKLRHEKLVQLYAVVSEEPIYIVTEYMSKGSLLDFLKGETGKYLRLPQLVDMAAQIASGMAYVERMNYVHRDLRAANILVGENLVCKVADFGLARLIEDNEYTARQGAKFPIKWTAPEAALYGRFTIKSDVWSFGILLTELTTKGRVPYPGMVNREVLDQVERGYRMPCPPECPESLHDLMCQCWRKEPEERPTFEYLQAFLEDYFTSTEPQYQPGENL
Description: as §1

kinases in BCWM.1 cells [8] = target: kinases in BCWM.1 cells (Homo sapiens, UniProt P42338); settings: PIK3CB; ATP; 1 μM, 90 min; no GF
Description: as §1

kinases in BCWM.1 cells [9] = target: kinases in BCWM.1 cells (Homo sapiens, UniProt P42680); settings: TEC; Activation Loop; 1 μM, 90 min; no GF
Description: as §1

kinases in BCWM.1 cells [10] = target: kinases in BCWM.1 cells (Homo sapiens, UniProt P51957); settings: NEK4; Lys2; 1 μM, 90 min; no GF
Description: as §1

kinases in BCWM.1 cells [11] = target: kinases in BCWM.1 cells (Homo sapiens, UniProt Q16816); settings: PHKg1; Protein Kinase Domain; 1 μM, 90 min; no GF
Description: as §1

kinases in BCWM.1 cells [12] = target: kinases in BCWM.1 cells (Homo sapiens, UniProt Q6PHR2); settings: ULK3; Lys2; 1 μM, 90 min; no GF
Description: as §1

kinases in BCWM.1 cells [13] = target: kinases in BCWM.1 cells (Homo sapiens, UniProt Q7RTN6); settings: STLK5; Activation Loop; 1 μM, 90 min; no GF
Description: as §1

kinases in BCWM.1 cells [14] = target: kinases in BCWM.1 cells (Homo sapiens, UniProt Q86UE8); settings: TLK2; Lys2; 1 μM, 90 min; no GF
Description: as §1

kinases in BCWM.1 cells [15] = target: kinases in BCWM.1 cells (Homo sapiens, UniProt Q86Y07); settings: VRK2; Lys2; 1 μM, 90 min; no GF
Description: as §1

kinases in BCWM.1 cells [16] = target: kinases in BCWM.1 cells (Homo sapiens, UniProt Q8NEB9); settings: PIK3C3; ATP; 1 μM, 90 min; no GF
Description: as §1

kinases in BCWM.1 cells [17] = target: kinases in BCWM.1 cells (Homo sapiens, UniProt Q8TD19); settings: NEK9; Lys2; 1 μM, 90 min; no GF
kinases in BCWM.1 cells (Homo sapiens, UniProt Q8TD19), sequence (Q8TD19 2-979 limits assumed): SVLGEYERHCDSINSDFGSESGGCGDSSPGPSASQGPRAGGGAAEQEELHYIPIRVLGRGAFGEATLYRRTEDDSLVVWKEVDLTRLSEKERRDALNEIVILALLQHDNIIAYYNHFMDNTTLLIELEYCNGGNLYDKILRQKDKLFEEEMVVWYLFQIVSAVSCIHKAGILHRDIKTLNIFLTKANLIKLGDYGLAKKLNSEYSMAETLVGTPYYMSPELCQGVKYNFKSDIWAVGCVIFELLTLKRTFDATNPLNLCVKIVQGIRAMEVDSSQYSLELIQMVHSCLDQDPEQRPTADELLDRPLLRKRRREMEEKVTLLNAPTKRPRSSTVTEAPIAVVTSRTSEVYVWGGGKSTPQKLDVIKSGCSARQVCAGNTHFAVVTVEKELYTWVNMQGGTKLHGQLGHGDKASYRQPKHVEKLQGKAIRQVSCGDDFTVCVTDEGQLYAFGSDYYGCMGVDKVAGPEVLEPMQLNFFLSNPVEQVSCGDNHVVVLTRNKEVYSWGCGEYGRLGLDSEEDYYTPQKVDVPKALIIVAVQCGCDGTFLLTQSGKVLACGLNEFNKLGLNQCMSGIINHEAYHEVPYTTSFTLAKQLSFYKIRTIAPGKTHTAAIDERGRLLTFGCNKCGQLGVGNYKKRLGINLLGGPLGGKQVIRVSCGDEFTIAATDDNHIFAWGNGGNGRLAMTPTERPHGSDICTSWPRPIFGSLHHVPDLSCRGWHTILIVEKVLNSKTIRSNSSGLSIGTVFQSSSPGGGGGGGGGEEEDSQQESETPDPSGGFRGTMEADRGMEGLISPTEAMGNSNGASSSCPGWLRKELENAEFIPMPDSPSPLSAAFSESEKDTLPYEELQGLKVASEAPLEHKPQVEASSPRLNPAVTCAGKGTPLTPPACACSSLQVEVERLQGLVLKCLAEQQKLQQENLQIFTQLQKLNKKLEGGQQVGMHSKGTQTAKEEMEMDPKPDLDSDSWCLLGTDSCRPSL
Description: as §1

kinases in BCWM.1 cells [18] = target: kinases in BCWM.1 cells (Homo sapiens, UniProt Q96Q15); settings: SMG1; ATP; 1 μM, 90 min; no GF
Description: as §1

kinases in BCWM.1 cells [19] = target: kinases in BCWM.1 cells (Homo sapiens, UniProt Q96SB4); settings: SRPK1; Lys2; 1 μM, 90 min; no GF
Description: as §1

kinases in BCWM.1 cells [20] = target: kinases in BCWM.1 cells (Homo sapiens, UniProt Q9BYT3); settings: STK33; Lys2; 1 μM, 90 min; no GF
Description: as §1

kinases in BCWM.1 cells [21] = target: kinases in BCWM.1 cells (Homo sapiens, UniProt Q9BZL6); settings: PKD2; Lys1; 1 μM, 90 min; no GF
Description: as §1

kinases in BCWM.1 cells [22] = target: kinases in BCWM.1 cells (Homo sapiens, UniProt Q9H2G2); settings: SLK; Lys2; 1 μM, 90 min; no GF
Description: as §1

kinases in BCWM.1 cells [23] = target: kinases in BCWM.1 cells (Homo sapiens, UniProt Q9NRH2); settings: SNRK; Lys2; 1 μM, 90 min; no GF
Description: as §1

kinases in BCWM.1 cells [24] = target: kinases in BCWM.1 cells (Homo sapiens, UniProt Q9UBF8); settings: PI4KB; ATP; 1 μM, 90 min; no GF
kinases in BCWM.1 cells (Homo sapiens, UniProt Q9UBF8), sequence (Q9UBF8 2-816 limits assumed): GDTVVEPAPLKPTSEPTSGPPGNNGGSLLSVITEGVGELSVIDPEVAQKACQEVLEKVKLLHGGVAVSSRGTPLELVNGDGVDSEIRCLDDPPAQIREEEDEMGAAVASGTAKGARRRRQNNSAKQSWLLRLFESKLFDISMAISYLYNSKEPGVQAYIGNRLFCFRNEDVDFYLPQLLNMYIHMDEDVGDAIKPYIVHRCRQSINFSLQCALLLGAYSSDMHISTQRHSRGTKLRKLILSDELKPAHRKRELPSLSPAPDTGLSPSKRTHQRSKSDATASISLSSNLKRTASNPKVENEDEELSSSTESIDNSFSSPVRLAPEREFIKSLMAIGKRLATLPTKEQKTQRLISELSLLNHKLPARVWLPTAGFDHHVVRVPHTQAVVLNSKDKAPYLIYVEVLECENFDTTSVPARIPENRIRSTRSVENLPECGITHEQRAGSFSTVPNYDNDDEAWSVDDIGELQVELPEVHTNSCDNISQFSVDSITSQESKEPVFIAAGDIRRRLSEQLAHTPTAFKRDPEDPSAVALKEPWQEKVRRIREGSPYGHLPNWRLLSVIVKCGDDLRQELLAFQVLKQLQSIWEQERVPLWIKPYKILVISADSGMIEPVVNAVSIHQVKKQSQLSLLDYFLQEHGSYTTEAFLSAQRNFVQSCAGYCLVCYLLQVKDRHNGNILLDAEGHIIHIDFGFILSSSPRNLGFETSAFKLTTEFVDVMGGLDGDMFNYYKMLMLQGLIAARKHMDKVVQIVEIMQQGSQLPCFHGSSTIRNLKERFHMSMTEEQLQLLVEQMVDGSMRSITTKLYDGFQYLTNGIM
Description: as §1

kinases in BCWM.1 cells [25] = target: kinases in BCWM.1 cells (Homo sapiens, UniProt Q9UBS0); settings: p70S6Kb; Lys2; 1 μM, 90 min; no GF
Description: as §1

kinases in BCWM.1 cells [26] = target: kinases in BCWM.1 cells (Homo sapiens, UniProt Q9UHD2); settings: TBK1; Lys1; 1 μM, 90 min; no GF
Description: as §1

kinases in BCWM.1 cells [27] = target: kinases in BCWM.1 cells (Homo sapiens, UniProt Q9UKI8); settings: TLK1; Lys2; 1 μM, 90 min; no GF
Description: as §1

kinases in BCWM.1 cells [28] = target: kinases in BCWM.1 cells (Homo sapiens, UniProt Q9UL54); settings: TAO2; Lys2; 1 μM, 90 min; no GF
Description: as §1

Structure (SMILES) | % change of MS signal compared to control sample (kinases in BCWM.1 cells [1]) | % change of MS signal compared to control sample (kinases in BCWM.1 cells [2]) | % change of MS signal compared to control sample (kinases in BCWM.1 cells [3]) | % change of MS signal compared to control sample (kinases in BCWM.1 cells [4]) | % change of MS signal compared to control sample (kinases in BCWM.1 cells [5]) | % change of MS signal compared to control sample (kinases in BCWM.1 cells [6]) | % change of MS signal compared to control sample (kinases in BCWM.1 cells [7]) | % change of MS signal compared to control sample (kinases in BCWM.1 cells [8]) | % change of MS signal compared to control sample (kinases in BCWM.1 cells [9]) | % change of MS signal compared to control sample (kinases in BCWM.1 cells [10]) | % change of MS signal compared to control sample (kinases in BCWM.1 cells [11]) | % change of MS signal compared to control sample (kinases in BCWM.1 cells [12]) | % change of MS signal compared to control sample (kinases in BCWM.1 cells [13]) | % change of MS signal compared to control sample (kinases in BCWM.1 cells [14]) | % change of MS signal compared to control sample (kinases in BCWM.1 cells [15]) | % change of MS signal compared to control sample (kinases in BCWM.1 cells [16]) | % change of MS signal compared to control sample (kinases in BCWM.1 cells [17]) | % change of MS signal compared to control sample (kinases in BCWM.1 cells [18]) | % change of MS signal compared to control sample (kinases in BCWM.1 cells [19]) | % change of MS signal compared to control sample (kinases in BCWM.1 cells [20]) | also measured
C=CC(=O)N1CC[C@H](Nc2nccc(Nc3ncc(C(=O)Nc4c(C)cccc4C)s3)n2)C1 [Example I-3] | −3.4% | −1.8% | 2.3% | 0.9% | 13.8% | −14.8% | 91.7% | −9.1% | >91% | 10.1% | 31.7% | 8.2% | 10.4% | −3% | −13.9% | 2.4% | 15.4% | 0.6% | −7.8% | −6.1% | % change of MS signal compared to control sample (kinases in BCWM.1 cells [21]): 5.5%; % change of MS signal compared to control sample (kinases in BCWM.1 cells [22]): 13%; % change of MS signal compared to control sample (kinases in BCWM.1 cells [23]): 46.4%; % change of MS signal compared to control sample (kinases in BCWM.1 cells [24]): 6.4%; % change of MS signal compared to control sample (kinases in BCWM.1 cells [25]): −36.7%; % change of MS signal compared to control sample (kinases in BCWM.1 cells [26]): −25.1%; % change of MS signal compared to control sample (kinases in BCWM.1 cells [27]): −0.7%; % change of MS signal compared to control sample (kinases in BCWM.1 cells [28]): 5%
CCC(=O)N1CC[C@H](Nc2nccc(Nc3ncc(C(=O)Nc4c(C)cccc4C)s3)n2)C1 [Example I-9] | −19.7% | 28.5% | −1.4% | −3.9% | 2.7% | 20.9% | 78.6% | 33.6% | 97.4% | −13.1% | −51% | −16.4% | −12.9% | −13.3% | 6.2% | −23.4% | −21.3% | −11.6% | −4% | 20.2% | % change of MS signal compared to control sample (kinases in BCWM.1 cells [21]): −11%; % change of MS signal compared to control sample (kinases in BCWM.1 cells [22]): −6%; % change of MS signal compared to control sample (kinases in BCWM.1 cells [23]): 28.6%; % change of MS signal compared to control sample (kinases in BCWM.1 cells [24]): −24.3%; % change of MS signal compared to control sample (kinases in BCWM.1 cells [25]): 24.3%; % change of MS signal compared to control sample (kinases in BCWM.1 cells [26]): 23%; % change of MS signal compared to control sample (kinases in BCWM.1 cells [27]): −7.9%; % change of MS signal compared to control sample (kinases in BCWM.1 cells [28]): 4.3%
